Measured values published in publication PMC8880132 (Molecules, 2022).
Where two headings read alike, the source gives them in different places. Each block holds one compound with its values, some of them ahead of it.

Assays:
[1] = Pharmacokinetic drug-drug interaction study in rats after oral administration; assay type: in vivo, SD (Sprague-Dawley) rats; settings: for Cmax / Tmax / half-life / AUC(0-inf) / AUC(0-t): male, Sprague-Dawley, rat, plasma, po; for Cmax / Tmax / half-life / AUC(0-inf) / AUC(0-t) / CLz / Vz: rat plasma; for Tmax: median (range); for half-life: read-out: t1/2z (converted)
Method: SPF (specific pathogen free)-grade male SD (Sprague-Dawley) rats (weight: 230 ± 10 g) were purchased from Beijing Weitong Lihua Experimental Animal Technology Co. Ltd. (Beijing, China). Before starting the experiment, the rats were given sufficient food and water and kept under suitable conditions for one week. Suitable conditions included suitable temperature (23–27 °C), suitable humidity (50 ± 10%), and 12-h light–12-h dark diurnal cycle. All animals were fasted for 12 h before the start of the experiment, but they were allowed to drink water freely. All the animal experimental protocols were conducted in accordance with the UK Animals (Scientific Procedures) Act 1986 and under the guideline approved by the Ethics Committee of Hebei General Hospital (Shijiazhuang, China; No. 2021131).
Twenty-four healthy rats were randomly and equally divided into four groups (six animals in each group). […] Approximately 0.3 mL of blood was collected from the orbital venous plexus in a heparinized centrifuge tube from each rat at 0.25, 0.5, 1, 2, 3, 4, 6, 8, 10, 12, 24, 48, 72, and 96 h after administration. […] The blood samples were collected from each rat at 0.17, 0.33, 0.5, 0.75, 1, 2, 3, 4, 6, 8, 10, 12, 24, 48, and 72 h after administration. Blood samples were centrifuged at 3500 rpm for 10 min, and the plasma samples (supernatant) were harvested and stored at −80 °C.
The main pharmacokinetic parameters are presented as mean ± standard deviation and statistically analyzed using SPSS 25.0 software package (SPSS Inc., Chicago, IL, USA). A p-value of <0.05 was considered statistically significant.

[2] = Stability of LEN and TEL in rat plasma under various storage conditions; assay type: in vitro ADME; settings: for Stability, measured concentration Mean ± SD / Stability, Accuracy (RE%) vs nominal concentration: rat plasma; for Stability, measured concentration Mean ± SD: n = 6
Method: QC samples with six replicates of each concentration were used to assess the stability of the samples under different processing and storage conditions. […] The long-term stability was carried out by freezing at −80 °C for 30 days, and the freeze–thaw stability was verified by repeatedly freezing and thawing three times.

[3] = system: breast cancer resistance protein (BCRP); settings: cited from earlier work
[4] = cited from earlier work
P-glycoprotein (P-gp) = settings: cited from earlier work
[5] = system: multidrug resistance-associated protein 2 (MRP2); settings: in vitro studies; cited from earlier work
[6] = cited from earlier work; remark: listed apart in the source
[7] = 1.2 mg/kg, LEN 1.2 mg/kg oral, alone
[8] = 1.2 mg/kg, LEN 1.2 mg/kg oral, with TEL (4 mg/kg)
[9] = LEN 1.2 mg/kg oral, with TEL (4 mg/kg)
[10] = autosampler for 24 h, high QC (800 ng/mL LEN, 400 ng/mL TEL)
[11] = autosampler for 24 h, low QC (0.5 ng/mL LEN, 0.25 ng/mL TEL)
[12] = freeze–thaw three times, high QC (800 ng/mL LEN, 400 ng/mL TEL)
[13] = freeze–thaw three times, low QC (0.5 ng/mL LEN, 0.25 ng/mL TEL)
[14] = freeze–thaw three times, medium QC (150 ng/mL LEN, 75 ng/mL TEL)
[15] = room temperature for 8 h, high QC (800 ng/mL LEN, 400 ng/mL TEL)
[16] = room temperature for 8 h, low QC (0.5 ng/mL LEN, 0.25 ng/mL TEL)
[17] = room temperature for 8 h, medium QC (150 ng/mL LEN, 75 ng/mL TEL)
[18] = −80 °C for 30 days, high QC (800 ng/mL LEN, 400 ng/mL TEL)
[19] = −80 °C for 30 days, low QC (0.5 ng/mL LEN, 0.25 ng/mL TEL)
[20] = −80 °C for 30 days, medium QC (150 ng/mL LEN, 75 ng/mL TEL)
[21] = TEL 4 mg/kg with LEN 1.2 mg/kg vs TEL alone, rats, oral
[22] = 4 mg/kg, TEL 4 mg/kg oral, alone
[23] = 4 mg/kg, TEL 4 mg/kg oral, with LEN (1.2 mg/kg)
[24] = autosampler for 24 h, medium QC (150 ng/mL LEN, 75 ng/mL TEL)

Cmax [1, 7]: 498 ± 107 ng/mL
Tmax [1, 7]: 2.5 h
half-life [1, 7]: 8.75 ± 2.55 h
AUC(0-inf) [1, 8]: 5860 ± 1350 ng·h/mL
AUC(0-t) [1, 8]: 5860 ± 1350 ng·h/mL
Cmax [1, 8]: 644 ± 211 ng/mL
half-life [1, 8]: 9.32 ± 4.69 h
CLz ([1]; LEN 1.2 mg/kg oral, alone): 3.5 ± 0.33 mL/min/kg
Vz ([1]; LEN 1.2 mg/kg oral, alone): 2.69 ± 0.79 L/kg
CLz [1, 9]: 3.67 ± 0.83 mL/min/kg
Vz [1, 9]: 2.92 ± 1.60 L/kg
Stability, measured concentration Mean ± SD [2, 10]: 835.67 ± 34.60 ng/mL
Stability, measured concentration Mean ± SD [2, 11]: 0.48 ± 0.03 ng/mL
Stability, measured concentration Mean ± SD [2, 12]: 787.50 ± 40.13 ng/mL
Stability, measured concentration Mean ± SD [2, 13]: 0.48 ± 0.05 ng/mL
Stability, measured concentration Mean ± SD [2, 14]: 150.17 ± 14.85 ng/mL
Stability, measured concentration Mean ± SD [2, 15]: 751.50 ± 19.74 ng/mL
Stability, measured concentration Mean ± SD [2, 16]: 0.52 ± 0.03 ng/mL
Stability, measured concentration Mean ± SD [2, 17]: 149.33 ± 11.15 ng/mL
Stability, measured concentration Mean ± SD [2, 18]: 808.00 ± 59.16 ng/mL
Stability, measured concentration Mean ± SD [2, 19]: 0.53 ± 0.05 ng/mL
Stability, measured concentration Mean ± SD [2, 20]: 154.00 ± 4.77 ng/mL
Structure (SMILES): COc1cc2nccc(Oc3ccc(NC(=O)NC4CC4)c(Cl)c3)c2cc1C(N)=O [LEN, Lenvatinib]
BCRP interaction [3]: substrate
water solubility [4]: poor water solubility
P-gp interaction (P-glycoprotein (P-gp)): substrate

Structure (SMILES): CCCc1nc2c(C)cc(-c3nc4ccccc4n3C)cc2n1Cc1ccc(-c2ccccc2C(=O)O)cc1 [TEL, Telmisartan]
AUC0–72h reduced by [1, 21]: 44.9%
AUC0–∞ reduced by [1, 21]: 41.3%
Cmax reduced by [1, 21]: 42.2%
Vz higher by [1, 21]: 97.1%
increase in CL [1, 21]: 69%
AUC(0-inf) [1, 22]: 4180 ± 1040 ng·h/mL
AUC(0-t) [1, 22]: 4150 ± 1040 ng·h/mL
Cmax [1, 22]: 171 ± 38 ng/mL
Tmax [1, 22]: 8 h
half-life [1, 22]: 9.36 ± 2.09 h
AUC(0-inf) [1, 23]: 2460 ± 544 ng·h/mL
AUC(0-t) [1, 23]: 2280 ± 322 ng·h/mL
Cmax [1, 23]: 99 ± 19.3 ng/mL
Tmax [1, 23]: 11 h
half-life [1, 23]: 12.4 ± 12.7 h
CLz ([1]; TEL 4 mg/kg oral, alone): 16.7 ± 3.5 mL/min/kg
CLz ([1]; TEL 4 mg/kg oral, with LEN (1.2 mg/kg)): 28.2 ± 5.83 mL/min/kg
Stability, Accuracy (RE%) vs nominal concentration [2, 10]: −0.38%
Stability, measured concentration Mean ± SD [2, 10]: 398.50 ± 22.76 ng/mL
Stability, Accuracy (RE%) vs nominal concentration [2, 11]: −4.33%
Stability, measured concentration Mean ± SD [2, 11]: 0.24 ± 0.02 ng/mL
Stability, Accuracy (RE%) vs nominal concentration [2, 24]: −1.76%
Stability, measured concentration Mean ± SD [2, 24]: 73.68 ± 1.59 ng/mL
Stability, Accuracy (RE%) vs nominal concentration [2, 12]: −2.17%
Stability, measured concentration Mean ± SD [2, 12]: 391.33 ± 25.73 ng/mL
Stability, Accuracy (RE%) vs nominal concentration [2, 13]: −0.47%
Stability, measured concentration Mean ± SD [2, 13]: 0.25 ± 0.01 ng/mL
Stability, Accuracy (RE%) vs nominal concentration [2, 14]: −3.53%
Stability, measured concentration Mean ± SD [2, 14]: 72.35 ± 2.51 ng/mL
Stability, Accuracy (RE%) vs nominal concentration [2, 15]: −7.58%
Stability, measured concentration Mean ± SD [2, 15]: 369.67 ± 6.98 ng/mL
Stability, Accuracy (RE%) vs nominal concentration [2, 16]: −3.53%
Stability, measured concentration Mean ± SD [2, 16]: 0.24 ± 0.01 ng/mL
Stability, Accuracy (RE%) vs nominal concentration [2, 17]: −2.36%
Stability, measured concentration Mean ± SD [2, 17]: 73.23 ± 5.40 ng/mL
Stability, Accuracy (RE%) vs nominal concentration [2, 18]: 0.38%
Stability, measured concentration Mean ± SD [2, 18]: 401.50 ± 27.46 ng/mL
Stability, Accuracy (RE%) vs nominal concentration [2, 19]: 1.80%
Stability, measured concentration Mean ± SD [2, 19]: 0.25 ± 0.01 ng/mL
Stability, Accuracy (RE%) vs nominal concentration [2, 20]: −0.36%
Stability, measured concentration Mean ± SD [2, 20]: 74.73 ± 1.64 ng/mL
stability of plasma samples ([2]; room temperature 8 h, autosampler 24 h after processing, −80 °C 30 days, freezing and thawing three times): stable
BCRP interaction ([3]; in vitro studies): substrate and inhibitor
MRP2 interaction [5]: substrate and inhibitor
water solubility ([4]; solubility is related to PH): poorly water-soluble
P-gp interaction (P-glycoprotein (P-gp); in vitro studies): substrate and inhibitor
half-life [6]: 24 h
